Measurements published in US6218406A, “Farnesyl transferase inhibitors, their preparation, the pharmaceutical compositions which contain them and their use in the preparation of medicaments” (Aventis Pharma S.A., priority 1996, dated 2001).
Structures can show the parent of a compound that is named as a salt. Where two headings read alike, the source gives them in different places.

Target: farnesyl transferase (Homo sapiens, UniProt P49354+P49356)
Assay: Farnesyl transferase inhibition, [3H]-farnesylation of biotinylated K-ras C-terminal peptide (SPA assay)
Format: biochemical
Conditions: 60 min at 37° C., mean of two IC50 values
[1] = K-Ras substrate, read-out: In vitro inhibitory activity (K-Ras) IC50
[2] = In vitro inhibitory activity (K-Ras) IC50, K-Ras substrate

SMILES	IC50 [1]	IC50 [2]
COc1cccc([C@]23CC[C@H](c4ccccc42)[C@@]2(C(=O)O)CN(C(=O)Cc4ccccc4OC)C[C@@H]32)c1 (relative stereo) [Example 10, (3aRS,4SR,9SR,9aRS)-4,9-ethano-9-(3-methoxyphenyl)-2-[(2-methoxyphenyl)acetyl]-2,3,3a,4,9,9a-hexahydro-1H-benzo[f]isoindole-3a-carboxylic Acid]	160 nM	
C=C(C(=O)N1C[C@@H]2[C@]3(c4ccc(C)c(C)c4)CC[C@@H](c4ccccc43)[C@]2(C(=O)OC)C1)c1ccccc1OC (racemic) [Example 71, methyl (3aRS,4SR,9SR,9aRS)-9-(3,4-dimethylphenyl)-4,9-ethano-2-[2-(2-methoxyphenyl)propenoyl]-2,3,3a,4,9,9a-hexahydro-1H-benzo[f]isoindole-3a-carboxylate]	335 nM	
C=C(C(=O)N1C[C@@H]2[C@]3(c4ccc5c(c4)CCO5)CC[C@@H](c4ccccc43)[C@]2(C(=O)OC)C1)c1ccccc1OC (racemic) [Example 61, methyl (3aRS,4SR,9SR,9aRS)-9-(2,3-dihydrobenzofuran-5-yl)-4,9-ethano-2-[2-(2-methoxyphenyl)propenoyl]-2,3,3a,4,9,9a-hexahydro-1H-benzo[f]isoindole-3a-carboxylate]	178 nM	
C=C(C(=O)N1C[C@@H]2[C@]3(c4ccc(OC)cc4)CC[C@@](C)(c4ccccc43)[C@@]2(C(=O)O)C1)c1ccccc1OC (racemic) [Example 101, (3aRS,4SR,9SR,9aRS)-4,9-ethano-2-[2-(2-methoxyphenyl)propenoyl]-9-(4-methoxyphenyl)-4-methyl-2,3,3a,4,9,9a-hexahydro-1H-benzo[f]isoindole-3a-carboxylic Acid]	< 19 nM	
C=C(C(=O)N1C[C@@H]2[C@]3(c4ccc(C(F)(F)F)cc4)CC[C@@H](c4ccccc43)[C@]2(C(=O)NNC(=O)c2ccccc2)C1)c1ccccc1OC (relative stereo) [Example 43, (3aRS,4SR,9SR,9aRS)-4,9-ethano-2-[2-(2-methoxyphenyl)propenoyl]-9-[4-(trifluoromethyl)phenyl]-2,3,3a,4,9,9a-hexahydro-1H-benzo[f]isoindole-3a-N'-benzoylcarbohydrazide]	590 nM	
C=C(C(=O)N1C[C@H]2[C@@]3(c4ccc(C)cc4)CC[C@H](c4ccccc43)[C@@]2(C(=O)NCc2cccnc2)C1)c1ccccc1OC (relative stereo) [Example 17, (3aRS,4SR,9SR,9aRS)-4,9-ethano-2-[2-(2-methoxyphenyl)propenoyl]-9-(4-methylphenyl)-2,3,3a,4,9,9a-hexahydro-1H-benzo[f]isoindole-3a-N-(3-pyridylmethyl)carboxamide]	235 nM	
C=C(C(=O)N1C[C@@H]2[C@]3(c4cccc(Cl)c4)CC[C@@H](c4ccccc43)[C@]2(C(=O)O)C1)c1ccccc1OC (racemic) [Example 89, (3aRS,4SR,9SR,9aRS)-9-(3-chlorophenyl)-4,9-ethano-2-[2-(2-methoxyphenyl)propenoyl]-2,3,3a,4,9,9a-hexahydro-1H-benzo[f]isoindole-3a-carboxylic Acid]	5 nM	
C=C(C(=O)N1C[C@@H]2[C@]3(c4ccc(CC)cc4)CC[C@@H](c4ccccc43)[C@]2(C(=O)O)C1)c1ccccc1OC (racemic) [Example 60, (3aRS,4SR,9SR,9aRS)-4,9-ethano-9-(4-ethylphenyl)-2-[2-(2-methoxyphenyl)propenoyl]-2,3,3a,4,9,9a-hexahydro-1H-benzo[f]isoindole-3a-carboxylic Acid]	124 nM	
C=C(C(=O)N1C[C@H]2[C@@]3(c4cccc(F)c4)CC[C@H](c4ccccc43)[C@@]2(C(=O)NCc2cccnc2)C1)c1ccccc1OC (relative stereo) [Example 87, (3aRS,4SR,9SR,9aRS)-4,9-ethano-9-(3-fluorophenyl)-2-[2-(2-methoxyphenyl)propenoyl]-2,3,3a,4,9,9a-hexahydro-1H-benzo[f]isoindole-3a-N-(3-pyridylmethyl)carboxamide]	64 nM	
COc1ccccc1CC(=O)N1C[C@@H]2[C@]3(c4cc(C)c(C)c(C)c4)CC[C@@H](c4ccccc43)[C@]2(C(=O)O)C1 (racemic) [Example 37, (3aRS,4SR,9SR,9aRS)-4,9-ethano-2-[(2-methoxyphenyl)acetyl]-9-(3,4,5-trimethylphenyl)-2,3,3a,4,9,9a-hexahydro-1H-benzo[f]isoindole-3a-carboxylic Acid]	88 nM	
C=C(C(=O)N1C[C@@H]2[C@]3(c4cccc(N)c4)CC[C@@H](c4ccccc43)[C@]2(C(=O)OC)C1)c1ccccc1OC (racemic) [Example 93, methyl (3aRS,4SR,9SR,9aRS)-9-(3-aminophenyl)-4,9-ethano-2-[2-(2-methoxyphenyl)propenoyl]-2,3,3a,4,9,9a-hexahydro-1H-benzo[f]isoindole-3a-carboxylate hydrochloride]	786 nM	
C=C(C(=O)N1CC2C3(c4ccc(OC)cc4)CCC(c4ccccc43)C2(C(=O)NC(C(=O)O)c2ccccc2)C1)c1ccccc1OC (stereo not drawn) [Example 81, (RS)- and (SR)-2-{(3aRS,4SR,9SR,9aRS)-4,9-ethano-9-(4-methoxyphenyl)-2-[2-(2-methoxyphenyl)propenoyl]-2,3,3a,4,9,9a-hexahydro-1H-benzo[f]isoindole-3a-carbonylamino}phenylacetic Acids]	18 nM	
C=C(C(=O)N1C[C@@H]2[C@]3(c4ccc5c(c4)CCO5)CC[C@@H](c4ccccc43)[C@]2(C(=O)O)C1)c1ccccc1OC (racemic) [Example 62, (3aRS,4SR,9SR,9aRS)-9-(2,3-dihydrobenzofuran-5-yl)-4,9-ethano-2-[2-(2-methoxyphenyl)propenoyl]-2,3,3a,4,9,9a-hexahydro-1H-benzo[f]isoindole-3a-carboxylic Acid]	36 nM	
COc1ccccc1CC(=O)N1C[C@@H]2[C@]3(c4ccc(C)c(C)c4)CC[C@@H](c4ccccc43)[C@]2(C(=O)O)C1 (racemic) [Example 12, (3aRS,4SR,9SR,9aRS)-9-(3,4-dimethyl-phenyl)-4,9-ethano-2-[(2-methoxyphenyl)acetyl]-2,3,3a,4,9,9a-hexahydro-1H-benzo[f]isoindole-3a-carboxylic Acid]	45 nM	
C=C(C(=O)N1C[C@@H]2[C@]3(c4ccc(CC)cc4)CC[C@@H](c4ccccc43)[C@]2(C(=O)OC)C1)c1ccccc1OC (racemic) [Example 59, methyl (3aRS,4SR,9SR,9aRS)-4,9-ethano-9-(4-ethylphenyl)-2-[2-(2-methoxyphenyl)propenoyl]-2,3,3a,4,9,9a-hexahydro-1H-benzo[f]isoindole-3a-carboxylate]	408 nM	
C=C(C(=O)N1C[C@H]2[C@@]3(c4ccc(C)cc4)CC[C@H](c4ccccc43)[C@@]2(C(=O)NCc2ccccc2)C1)c1ccccc1OC (relative stereo) [Example 13, (3aRS,4SR, 9SR,9aRS)-3a-N-benzylcarbamoyl-4,9-ethano-2-[2-(2-methoxyphenyl)propenoyl]-9-(4-methylphenyl)-2,3,3a,4,9,9a-hexahydro-1H-benzo[f]isoindole]	140 nM	
COc1ccccc1CC(=O)N1C[C@H]2[C@@]3(c4ccc(C)cc4)CC[C@H](c4ccccc43)[C@@]2(C(=O)O)C1 (relative stereo) [Example 5, (3aRS,4SR,9SR,9aRS)-4,9-ethano-2-[(2-methoxyphenyl)acetyl]-9-(4-methylphenyl)-2,3,3a,4,9,9a-hexahydro-1H-benzo[f]isoindole-3a-carboxylic Acid]		50 nM
COc1ccccc1CC(=O)N1C[C@H]2[C@@]3(c4ccc(C)cc4)CC[C@H](c4ccccc43)[C@@]2(C(=O)O)C1 (single isomer, unassigned) [Example 30, dextrorotatory enantiomer of (3aRS,4SR,9SR,9aRS)-4,9-ethano-2-[2-(2-methoxyphenyl)acetyl]-9-(4-methylphenyl)-2,3,3a,4,9,9a-hexahydro-1H-benzo[f]isoindole-3a-carboxylic Acid]		74 nM
C=C(C(=O)N1C[C@H]2[C@@]3(c4ccc(OC)cc4)CC[C@H](c4ccccc43)[C@@]2(C(=O)NCc2ccsc2)C1)c1ccccc1OC (relative stereo) [Example 80, (3aRS,4SR,9SR,9aRS)-4,9-ethano-9-(4-methoxyphenyl)-2-[2-(2-methoxyphenyl)propenoyl]-2,3,3a,4,9,9a-hexahydro-1H-benzo[f]isoindole-3a-N-(3-thienylmethyl)carboxamide]	67 nM	
C=C(C(=O)N1C[C@@H]2[C@]3(c4ccc(C)cc4)CC[C@@H](c4ccccc43)[C@]2(C(=O)NO)C1)c1ccccc1OC (racemic) [Example 16, (3aRS,4SR,9SR,9aRS)-4,9-ethano-2-[2-(2-methoxyphenyl)propenoyl]-9-(4-methylphenyl)-2,3,3a,4,9,9a-hexahydro-1H-benzo[f]isoindole-3a-hydroxamic acid]	360 nM	
C=C(C(=O)N1C[C@H]2[C@@]3(c4ccc(C)cc4)CC[C@H](c4ccccc43)[C@@]2(C(=O)NCc2ccncc2)C1)c1ccccc1OC (relative stereo) [Example 20, (3aRS,4SR,9SR,9aRS)-4,9-ethano-2-[2-(2-methoxyphenyl)propenoyl]-9-(4-methylphenyl)-2,3,3a,4,9,9a-hexahydro-1H-benzo[f]isoindole-3a-N-(4-pyridylmethyl)carboxamide]	140 nM	
C=C(C(=O)N1C[C@@H]2[C@]3(c4ccc(OC)cc4)CC[C@@H](c4ccccc43)[C@]2(C(=O)O)C1)c1ccccc1OC (racemic) [Example 74, (3aRS,4SR,9SR,9aRS)-4,9-ethano-9-(4-methoxyphenyl)-2-[2-(2-methoxyphenyl)propenoyl]-2,3,3a,4,9,9a-hexahydro-1H-benzo[f]isoindole-3a-carboxylic Acid]	48 nM	
C=C(C(=O)N1C[C@H]2[C@@]3(c4ccc(C)cc4)CC[C@H](c4ccccc43)[C@@]2(C(=O)NNc2ccccc2C)C1)c1ccccc1OC (relative stereo) [Example 29, (3aRS,4SR,9SR,9aRS)-4,9-ethano-2-[2-(2-methoxyphenyl)propenoyl]-9-(4-methylphenyl)-2,3,3a,4,9,9a-hexahydro-1H-benzo[f]isoindole-3a-N'-(2-methylphenyl)carbohydrazide]	140 nM	
